Source: patent US8188284B2, “2-aminoquinolines” (Hoffman-La Roche Inc., priority 2008, dated 2012)

How the values were obtained:
[1] = target: T1, recombinant human 5-HT5A receptor (Homo sapiens, UniProt P47898); assay: [3H]LSD radioligand binding assay; details: [3H]LSD (approximately 1 nM), membranes from HEK-EBNA cells transiently expressing 5-HT5A receptors; Ki calculated from IC50 using the Cheng-Prussoff equation; read-out: Ki/nM 5-HT5A
T1 construct: expressed in transfected cells; host or cells: HEK-EBNA (Human Embryonic Kidney-EBNA) cells, transient cDNA expression, membranes
Procedure: A [^3H]LSD radioligand binding assay was used to determine the affinity of the compounds for the recombinant human 5-HT5A receptor, in membranes from transiently (cDNA) expressed 5-HT5A receptors in Human Embryonic Kidney-EBNA (HEK-EBNA) cells. Assay buffer consisted of Tris (50 mM) buffer containing 1 mM EGTA, 10 mM MgCl2 (pH 7.4) and 10 μM pargyline. The binding assay was carried out in 96-well-plates in the presence of [^3H]LSD (approximately 1 nM), approximately 2 μg/well of membrane protein, and 0.5 mg of Ysi-poly-1-lysine SPA beads in a final volume of 200 μl of buffer. Non-specific binding was defined using methiothepin 2 μM. Compounds were tested at 10 concentrations. All assays were conducted in duplicate and repeated at least two times. Assay plates were incubated for 120 min at room temperature before centrifugation. Bound ligand was determined using a Packard Topcount scintillation counter. IC50 values were calculated using a non-linear curve fitting program and Ki values calculated using the Cheng-Prussoff equation.

T1 sequence (P47898 whole entry): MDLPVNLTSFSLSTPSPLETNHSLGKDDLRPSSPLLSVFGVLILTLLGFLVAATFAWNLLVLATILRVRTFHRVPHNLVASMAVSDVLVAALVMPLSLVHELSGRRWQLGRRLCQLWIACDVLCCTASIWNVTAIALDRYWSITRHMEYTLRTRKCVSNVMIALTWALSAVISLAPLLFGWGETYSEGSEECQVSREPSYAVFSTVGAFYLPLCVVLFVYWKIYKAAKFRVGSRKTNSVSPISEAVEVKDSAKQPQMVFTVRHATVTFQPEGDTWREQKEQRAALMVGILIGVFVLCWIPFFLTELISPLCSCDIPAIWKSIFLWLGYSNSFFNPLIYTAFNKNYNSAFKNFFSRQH

| SMILES | melting point [°C] | Ki [1] [nM] |
| --- | --- | --- |
| COc1cccc2c1C(Nc1ccc3cc(Nc4cccc(C(F)(F)F)n4)ccc3n1)CC2 (racemic) [Example 91, rac-N^2-(7-Methoxy-indan-1-yl)-N^6-(6-trifluoromethyl-pyridin-2-yl)-quinoline-2,6-diamine] | 126 | 5.4 |
| COc1cccc2c1C(Nc1ccc3cc(Nc4nccc(C(F)(F)F)n4)ccc3n1)CC2 (racemic) [Example 92, rac-N^2-(7-Methoxy-indan-1-yl)-N^6-(4-trifluoromethyl-pyrimidin-2-yl)-quinoline-2,6-diamine] | 196 | 4.3 |
| COc1cccc2c1C(Nc1ccc3cc(Nc4nc(C)cc(C)n4)ccc3n1)CC2 (racemic) [Example 93, rac-N^6-(4,6-Dimethyl-pyrimidin-2-yl)-N^2-(7-methoxy-indan-1-yl)-quinoline-2,6-diamine] | 150 | 3.4 |
| COc1cccc2c1C(Nc1ccc3cc(Nc4cc(C)on4)ccc3n1)CC2 (racemic) [Example 95, rac-N^2-(7-Methoxy-indan-1-yl)-N^6-(5-methyl-isoxazol-3-yl)-quinoline-2,6-diamine] | 109 | 3.5 |
| Cc1cc(C)nc(Nc2ccc3nc(NC4COc5ccccc54)ccc3c2)n1 (racemic) [Example 97, rac-N^2-(2,3-Dihydro-benzofuran-3-yl)-N^6-(4,6-dimethyl-pyrimidin-2-yl)-quinoline-2,6-diamine] | 213 | – |
| FC(F)(F)c1ccnc(Nc2ccc3nc(NC4COc5ccccc54)ccc3c2)n1 (racemic) [Example 98, rac-N^2-(2,3-Dihydro-benzofuran-3-yl)-N^6-(4-trifluoromethyl-pyrimidin-2-yl)-quinoline-2,6-diamine] | 128 | – |
| Cc1cc(Nc2ccc3nc(NC4COc5ccccc54)ccc3c2)no1 (racemic) [Example 101, rac-N^2-(2,3-Dihydro-benzofuran-3-yl)-N^6-(5-methyl-isoxazol-3-yl)-quinoline-2,6-diamine] | 195 | – |
| Fc1ccc2c(c1)CCC2Nc1ccc2cc(Nc3nccc(C(F)(F)F)n3)ccc2n1 (racemic) [Example 103, rac-N^2-(5-Fluoro-indan-1-yl)-N^6-(4-trifluoromethyl-pyrimidin-2-yl)-quinoline-2,6-diamine] | 112 | 13.7 |
| Cc1cc(Nc2ccc3nc(NC4CCc5cc(F)ccc54)ccc3c2)no1 (racemic) [Example 106, rac-N^2-(5-Fluoro-indan-1-yl)-N^6-(5-methyl-isoxazol-3-yl)-quinoline-2,6-diamine] | 166 | 7.3 |
| COc1cccc2c1C(Nc1ccc3cc(Nc4cccc(C(F)(F)F)n4)ccc3n1)CO2 (racemic) [Example 109, rac-N^2-(4-Methoxy-2,3-dihydro-benzofuran-3-yl)-N^6-(6-trifluoromethyl-pyridin-2-yl)-quinoline-2,6-diamine] | 132 | 26.1 |
| COc1cccc2c1C(Nc1ccc3cc(Nc4nccc(C(F)(F)F)n4)ccc3n1)CO2 (racemic) [Example 110, rac-N^2-(4-Methoxy-2,3-dihydro-benzofuran-3-yl)-N^6-(4-trifluoromethyl-pyrimidin-2-yl)-quinoline-2,6-diamine] | 185 | 11.8 |
| COc1cccc2c1C(Nc1ccc3cc(Nc4nc(C)cc(C)n4)ccc3n1)CO2 (racemic) [Example 111, rac-N^6-(4,6-Dimethyl-pyrimidin-2-yl)-N^2-(4-methoxy-2,3-dihydro-benzofuran-3-yl)-quinoline-2,6-diamine] | 145 | 9.1 |
| COc1cccc2c1C(Nc1ccc3cc(Nc4cc(C)on4)ccc3n1)CO2 (racemic) [Example 113, rac-N^2-(4-Methoxy-2,3-dihydro-benzofuran-3-yl)-N^6-(5-methyl-isoxazol-3-yl)-quinoline-2,6-diamine] | 222 | 14.4 |
| O=C(NCc1ccc(F)cc1)c1ccc2nc(N[C@@H]3CCc4ccccc43)ccc2c1 [Example 52, 2-((R)-Indan-1-ylamino)-quinoline-6-carboxylic acid 4-fluoro-benzylamide] | 175 | – |
| COc1ccccc1CNC(=O)c1ccc2nc(N[C@@H]3CCc4ccccc43)ccc2c1 [Example 55, 2-((R)-Indan-1-ylamino)-quinoline-6-carboxylic acid 2-methoxy-benzylamide] | 168 | 281 |
| ON=C(c1ccc(F)cc1)c1ccc2nc(N[C@@H]3CCc4ccccc43)ccc2c1 [Example 56, (4-Fluoro-phenyl)-[2-((R)-indan-1-ylamino)-quinolin-6-yl]-methanone oxime] | 225.5 | 141 |
| c1cnc(Nc2ccc3nc(N[C@@H]4CCc5ccccc54)ccc3c2)nc1 [Example 66, N^2—(R)-Indan-1-yl-N6-pyrimidin-2-yl-quinoline-2,6-diamine] | 142 | 23.2 |
| Cc1cc(C)nc(Nc2ccc3nc(N[C@@H]4CCc5ccccc54)ccc3c2)n1 [Example 67, N^6-(4,6-Dimethyl-pyrimidin-2-yl)-N^2—(R)-indan-1-yl-quinoline-2,6-diamine] | 88 | 15.7 |
| Cc1ccnc(Nc2ccc3nc(N[C@@H]4CCc5ccccc54)ccc3c2)n1 [Example 68, N^2—(R)-Indan-1-yl-N^6-(4-methyl-pyrimidin-2-yl)-quinoline-2,6-diamine] | 103 | 20 |
| c1ccc(Nc2ccc3nc(N[C@@H]4CCc5ccccc54)ccc3c2)nc1 [Example 69, N^2—(R)-Indan-1-yl-N^6-pyridin-2-yl-quinoline-2,6-diamine] | 77 | 20.4 |
| Cc1cccc(Nc2ccc3nc(N[C@@H]4CCc5ccccc54)ccc3c2)n1 [Example 72, N^2—(R)-Indan-1-yl-N^6-(6-methyl-pyridin-2-yl)-quinoline-2,6-diamine] | 72 | 7.7 |
| FC(F)(F)c1ccnc(Nc2ccc3nc(N[C@@H]4CCc5ccccc54)ccc3c2)n1 [Example 73, N^2—(R)-Indan-1-yl-N^6-(4-trifluoromethyl-pyrimidin-2-yl)-quinoline-2,6-diamine] | 165 | 11 |
| Cc1cc(Nc2ccc3nc(N[C@@H]4CCc5ccccc54)ccc3c2)no1 [Example 74, N^2—(R)-Indan-1-yl-N^6-(5-methyl-isoxazol-3-yl)-quinoline-2,6-diamine] | 127 | 8.7 |
| CC(C)(C)n1nnc(Nc2ccc3nc(N[C@@H]4CCc5ccccc54)ccc3c2)n1 [Example 75, N^6-(2-tert-Butyl-2H-tetrazol-5-yl)-N^2—(R)-indan-1-yl-quinoline-2,6-diamine] | 146 | 25.9 |
| c1ccc2c(c1)CC[C@H]2Nc1ccc2cc(Nc3nnc(C4CC4)o3)ccc2n1 [Example 76, N^6-(5-Cyclopropyl-[1,3,4]oxadiazol-2-yl)-N^2—(R)-indan-1-yl-quinoline-2,6-diamine] | 226 | 24.8 |
| Cc1nnc(Nc2ccc3nc(N[C@@H]4CCc5ccccc54)ccc3c2)o1 [Example 77, N^2—(R)-Indan-1-yl-N^6-(5-methyl-[1,3,4]oxadiazol-2-yl)-quinoline-2,6-diamine] | 129 | 21.2 |
| OCCc1cccc(Nc2ccc3nc(N[C@@H]4CCc5ccccc54)ccc3c2)c1 [Example 83, 2-{3-[2-((R)-Indan-1-ylamino)-quinolin-6-ylamino]-phenyl}-ethanol] | 109 | 9.6 |
| CN(c1ccc2nc(N[C@@H]3CCc4ccccc43)ccc2c1)c1ccccn1 [Example 85, N^2—(R)-Indan-1-yl-N^6-methyl-N^6-pyridin-2-yl-quinoline-2,6-diamine] | – | 225 |
